Laboratory results published in patent US11970493B2, “Autotaxin inhibitor compounds” (ILDONG PHARMACEUTICAL CO., LTD., priority 2020, dated 2024).
Where a name gives a salt, the structure may show the parent alone.

How the values were obtained:
[1] = Mouse PK study (IV and PO); format: in vivo; details: male, C57BL/6, mouse, plasma, male C57BL/6 mice; for AUC(0-inf): IV 2 mg/kg and PO 10 mg/kg study; for bioavailability / Cmax: po, 10 mg/kg; for bioavailability: IV 2 mg/kg and PO 10 mg/kg, read-out: F % (bioavailability); for Cmax: PO group 10 mg/kg
Protocol: This example describes the pharmacokinetic (PK) data obtained for various compounds of the present disclosure, from studies using mice. The following PK parameters were calculated: • Bioavailability (F %) were calculated using the linear/log trapezoidal rule • Peak plasma concentrations (Cmax (ng/mL)) were taken directly from the plasma concentration vs. time profiles for the PO group • Area under the curve e.g., the area under the concentration curve from time 0 to infinity (AUC0-inf(ng*h/mL)). Experimental Procedures
After intravenous (IV) and oral (PO) administration at 2 mg/kg and 10 mg/kg to male C57BL/6 mice, respectively, the blood samples were collected at the designed sampling time points. All blood samples were transferred into pre-chilled commercial polyethylene microcentrifuge tubes containing K2-EDTA as an anticoagulant. Samples were processed for plasma by centrifugation. Plasma samples was transferred into polypropylene tubes pre-chilled on dry ice and then quickly frozen over dry ice and kept at −70±10° C. until LC-MS/MS analysis. Mice plasma samples were analyzed using qualified bioanalytical methods based on protein precipitation followed by LC-MS/MS analysis. Individual plasma concentration data of each compound was subjected to noncompartmental pharmacokinetic analysis using Phoenix WinNonlin™. Nominal doses were used for pharmacokinetic parameters calculation.

[2] = target: hATX/ENPP2 (Homo sapiens, UniProt Q13822); test: hATX/ENPP2 biochemical assay using 16:0-LPC as substrate (Amplex Red/choline oxidase/HRP fluorescence); details: hENPP2 2.5 nM, LPC (16:0) substrate
Method in brief: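 Enzyme preincubated with compounds 15 min at room temperature in 50 mM Tris-HCl pH 8.0, 140 mM NaCl, 5 mM CaCl2, 0.01% Triton X-100. Reaction started with 80 μM LPC (16:0) stock plus Amplex Red/choline oxidase/HRP mix; fluorescence (ex 530/em 590 nm) read kinetically. IC50 from slope between 60 and 70 min.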

SMILES | AUC(0-inf) [1] | bioavailability [1] | Cmax [1] | IC50 [2]
CCc1nc2ccc(-c3cnc(N4CCN(C(=O)C5(C#N)CC5)CC4)nc3)cn2c1N(C)c1nc(-c2ccc(F)cc2)c(C#N)s1 [Compound 1, 2-((6-(2-(4-(1-cyanocyclopropane-1-carbonyl)piperazin-1-yl)pyrimidin-5-yl)-2-ethylimidazo[1,2-a]pyridin-3-yl)(methyl)amino)-4-(4-fluorophenyl) thiazole-5-carbonitrile] | 27200 ng·h/mL | 56.5% | 3030 ng/mL | ≤ 20 nM
CCc1nc2ccc(-c3cnc(N4CCN(C(=O)C5(O)CC5)CC4)nc3)cn2c1N(C)c1nc(-c2ccc(F)cc2)c(C#N)s1 [Compound 2, 2-((2-ethyl-6-(2-(4-(1-hydroxycyclopropane-1-carbonyl)piperazin-1-yl)pyrimidin-5-yl)imidazo[1,2-a]pyridin-3-yl)(methyl)amino)-4-(4-fluorophenyl)thiazole-5-carbonitrile] | 35100 ng·h/mL | 61% | 4070 ng/mL | ≤ 20 nM
CCc1nc2ccc(-c3cnc(C(=O)N4CCCC4)nc3)cn2c1N(C)c1nc(-c2ccc(F)cc2)c(C#N)s1 [Compound 47, 2-((2-ethyl-6-(2-(pyrrolidine-1-carbonyl)pyrimidin-5-yl)imidazo[1,2-a]pyridin-3-yl)(methyl)amino)-4-(4-fluorophenyl)thiazole-5-carbonitrile] | 42300 ng·h/mL | 62.3% | 4760 ng/mL | 20 to 200 nM
CCc1nc2ccc(-c3ccc(N4CCN(C(=O)NC5CCNCC5)CC4)nc3)cn2c1N(C)c1nc(-c2ccc(F)cc2)c(C#N)s1 [Compound 94, 4-(5-(3-((5-cyano-4-(4-fluorophenyl)thiazol-2-yl)(methyl)amino)-2-ethylimidazo[1,2-a]pyridin-6-yl)pyridin-2-yl)-N-(piperidin-4-yl)piperazine-1-carboxamide] | – | – | – | 20 to 200 nM
CCc1nc2ccc(-c3ccc(N4CCN(C(=O)[C@@H]5C[C@@H](O)CN5)CC4)nc3)cn2c1N(C)c1nc(-c2ccc(F)cc2)c(C#N)s1 [Compound 95, 2-((2-ethyl-6-(6-(4-((2S,4R)-4-hydroxypyrrolidine-2-carbonyl)piperazin-1-yl)pyridin-3-yl)imidazo[1,2-a]pyridin-3-yl)(methyl)amino)-4-(4-fluorophenyl)thiazole-5-carbonitrile] | – | – | – | ≤ 20 nM
CCc1nc2ccc(-c3ccc(N4CC(C(=O)NC5(CO)CC5)C4)nc3)cn2c1N(C)c1nc(-c2ccc(F)cc2)c(C#N)s1 [Compound 97, 1-(5-(3-((5-cyano-4-(4-fluorophenyl)thiazol-2-yl)(methyl)amino)-2-ethylimidazo[1,2-a]pyridin-6-yl)pyridin-2-yl)-N-(1-(hydroxymethyl)cyclopropyl)azetidine-3-carboxamide] | – | – | – | 20 to 200 nM
CCc1nc2ccc(-c3ccc(N4CCC(NC(=O)C5(O)CC5)CC4)nc3)cn2c1N(C)c1nc(-c2ccc(F)cc2)c(C#N)s1 [Compound 98, N-(1-(5-(3-((5-cyano-4-(4-fluorophenyl)thiazol-2-yl)(methyl)amino)-2-ethylimidazo[1,2-a]pyridin-6-yl)pyridin-2-yl)piperidin-4-yl)-1-hydroxycyclopropane-1-carboxamide] | – | – | – | ≤ 20 nM
CCc1nc2ccc(-c3cnc(C4CCN(C(=O)C5CCC5)CC4)nc3)cn2c1N(C)c1nc(-c2ccc(F)cc2)c(C#N)s1 [Compound 100, 2-((6-(2-(1-(cyclobutanecarbonyl)piperidin-4-yl)pyrimidin-5-yl)-2-ethylimidazo[1,2-a]pyridin-3-yl)(methyl)amino)-4-(4-fluorophenyl)thiazole-5-carbonitrile] | – | – | – | 20 to 200 nM
CCc1nc2ccc(-c3cnc(C4CCN(CC(=O)N5CCCC5)CC4)nc3)cn2c1N(C)c1nc(-c2ccc(F)cc2)c(C#N)s1 [Compound 104, 2-((2-ethyl-6-(2-(1-(2-oxo-2-(pyrrolidin-1-yl)ethyl)piperidin-4-yl)pyrimidin-5-yl)imidazo[1,2-a]pyridin-3-yl)(methyl)amino)-4-(4-fluorophenyl)thiazole-5-carbonitrile] | – | – | – | 20 to 200 nM
CCc1nc2ccc(-c3cnc(N4CC(NC5CCC5)C4)nc3)cn2c1N(C)c1nc(-c2ccc(F)cc2)c(C#N)s1 [Compound 106, 2-((6-(2-(3-(cyclobutylamino)azetidin-1-yl)pyrimidin-5-yl)-2-ethylimidazo[1,2-a]pyridin-3-yl)(methyl)amino)-4-(4-fluorophenyl)thiazole-5-carbonitrile] | – | – | – | 20 to 200 nM
CCc1nc2ccc(-c3cnc(N4CCC(NC5CC5)CC4)nc3)cn2c1N(C)c1nc(-c2ccc(F)cc2)c(C#N)s1 [Compound 107, 2-((6-(2-(4-(cyclopropylamino)piperidin-1-yl)pyrimidin-5-yl)-2-ethylimidazo[1,2-a]pyridin-3-yl)(methyl)amino)-4-(4-fluorophenyl)thiazole-5-carbonitrile] | – | – | – | 20 to 200 nM
CCc1nc2ccc(-c3cnc(N4CCN(C(=O)C5CC5)CC4)nc3)cn2c1N(C)c1nc(-c2ccc(F)cc2)c(C#N)s1 [Compound 110, 2-((6-(2-(4-(cyclopropanecarbonyl)piperazin-1-yl)pyrimidin-5-yl)-2-ethylimidazo[1,2-a]pyridin-3-yl)(methyl)amino)-4-(4-fluorophenyl) thiazole-5-carbonitrile] | – | – | – | 20 to 200 nM
CCc1nc2ccc(-c3cnc(N4CCN(C(=O)C5CN(C6CC6)C5)CC4)nc3)cn2c1N(C)c1nc(-c2ccc(F)cc2)c(C#N)s1 [Compound 111, 2-((6-(2-(4-(1-cyclopropylazetidine-3-carbonyl)piperazin-1-yl)pyrimidin-5-yl)-2-ethylimidazo[1,2-a]pyridin-3-yl)(methyl)amino)-4-(4-fluorophenyl)thiazole-5-carbonitrile] | – | – | – | 20 to 200 nM
CCc1nc2ccc(-c3ccc(N4CCN(C(=O)C5CCCC5)CC4)nc3)cn2c1N(C)c1nc(-c2ccc(F)cc2)c(C#N)s1 [Compound 112, 2-((6-(6-(4-(cyclopentanecarbonyl)piperazin-1-yl)pyridin-3-yl)-2-ethylimidazo[1,2-a]pyridin-3-yl)(methyl)amino)-4-(4-fluorophenyl)thiazole-5-carbonitrile] | – | – | – | 20 to 200 nM

Other lines, results leading:

AUC(0-inf) [1] | bioavailability [1] | Cmax [1] | IC50 [2] | SMILES
– | – | – | 20 to 200 nM | CCc1nc2ccc(-c3ccc(N4CCN(C(=O)NC5CNC5)CC4)nc3)cn2c1N(C)c1nc(-c2ccc(F)cc2)c(C#N)s1 [Compound 96 hydrochloride, N-(azetidin-3-yl)-4-(5-(3-((5-cyano-4-(4-fluorophenyl)thiazol-2-yl)(methyl)amino)-2-ethylimidazo[1,2-a]pyridin-6-yl)pyridin-2-yl) piperazine-1-carboxamide hydrochloride]
– | – | – | 20 to 200 nM | CCc1nc2ccc(-c3cnc(C4CCN(C(=O)C5CC5)CC4)nc3)cn2c1N(C)c1nc(-c2ccc(F)cc2)c(C#N)s1 [Compound 99, 2-((6-(2-(1-(cyclopropanecarbonyl)piperidin-4-yl)pyrimidin-5-yl)-2-ethylimidazo[1,2-a]pyridin-3-yl)(methyl)amino)-4-(4-fluorophenyl)thiazole-5-carbonitrile]
– | – | – | 20 to 200 nM | CCc1nc2ccc(-c3cnc(C4CCN(C(=O)N5CCC5)CC4)nc3)cn2c1N(C)c1nc(-c2ccc(F)cc2)c(C#N)s1 [Compound 101, 2-((6-(2-(1-(azetidine-1-carbonyl)piperidin-4-yl)pyrimidin-5-yl)-2-ethylimidazo[1,2-a]pyridin-3-yl)(methyl)amino)-4-(4-fluorophenyl)thiazole-5-carbonitrile]
– | – | – | 20 to 200 nM | CCc1nc2ccc(-c3cnc(C4CCN(C(=O)N5CCCC5)CC4)nc3)cn2c1N(C)c1nc(-c2ccc(F)cc2)c(C#N)s1 [Compound 102, 2-((2-ethyl-6-(2-(1-(pyrrolidine-1-carbonyl)piperidin-4-yl)pyrimidin-5-yl)imidazo[1,2-a]pyridin-3-yl)(methyl)amino)-4-(4-fluorophenyl)thiazole-5-carbonitrile]
– | – | – | 20 to 200 nM | CCc1nc2ccc(-c3cnc(C4CCN(CC(=O)N5CCC5)CC4)nc3)cn2c1N(C)c1nc(-c2ccc(F)cc2)c(C#N)s1 [Compound 103, 2-((6-(2-(1-(2-(azetidin-1-yl)-2-oxoethyl)piperidin-4-yl)pyrimidin-5-yl)-2-ethylimidazo[1,2-a]pyridin-3-yl)(methyl)amino)-4-(4-fluorophenyl)thiazole-5-carbonitrile]
– | – | – | 20 to 200 nM | CCc1nc2ccc(-c3cnc(N4CC(NC5CC5)C4)nc3)cn2c1N(C)c1nc(-c2ccc(F)cc2)c(C#N)s1 [Compound 105, 2-((6-(2-(3-(cyclopropylamino)azetidin-1-yl)pyrimidin-5-yl)-2-ethylimidazo[1,2-a]pyridin-3-yl)(methyl)amino)-4-(4-fluorophenyl)thiazole-5-carbonitrile]
– | – | – | 20 to 200 nM | CCc1nc2ccc(-c3cnc(N4CCC(NC5CCC5)CC4)nc3)cn2c1N(C)c1nc(-c2ccc(F)cc2)c(C#N)s1 [Compound 108, 2-((6-(2-(4-(cyclobutylamino)piperidin-1-yl)pyrimidin-5-yl)-2-ethylimidazo[1,2-a]pyridin-3-yl)(methyl)amino)-4-(4-fluorophenyl)thiazole-5-carbonitrile]
